{"source": "paper PMC8177746", "about": "(ACS applied materials & interfaces, 2020)", "origin": "cited, not measured here", "tested_on": "Staphylococcus aureus", "settings": "ref 14 (Lai et al.)", "data": [{"substance": "ILGPVLGLVSDTLDDVLGIL-NH2 [MH5]", "values": [{"measurement": "MIC", "result": 80, "unit": "µM"}]}]}
